Test results from patent US8557848B2, “4,5-ring annulated indole derivatives for treating or preventing of HCV and related viral infections” (Merck Sharp & Dohme Corp., priority 2006, dated 2013).
Where two headings read alike, the source gives them in different places.

Experiments:
[1] = biological target: T1, HCV NS5B polymerase (NS5BΔCT21, from HCV-Con 1 isolate, genotype 1b) (Hepatitis C virus genotype 1b, UniProt Q9WMX2); assay: HCV NS5B Polymerase Inhibition Assay; type: biochemical
T1 construct: A soluble C-terminal 21-amino acid truncated NS5B enzyme form; polyhistidine (C); made in house; host or cells: Escherichia coli
Source text: A chemically synthesized 75-mer version, designated DCoH75, whose sequence matches the 3′-end of D-RNA, and DCoH75ddC, where the 3′-terminal cytidine of DCoH75 is replaced by dideoxycytidine, were used for assaying the NS5B enzyme activity as described in Ferrari et al., 12th International Symposium on HCV and Related Viruses, P-306 (2005). The sequence of the template RNA was: 5′-UGUGCCGGUCUUUCUGAACGGGAUAUAAACCUGGCCAGCUUCAUCGAACAAGUUGCCGUGUCUAUGACAUAGAUC-3′. A soluble C-terminal 21-amino acid truncated NS5B enzyme form (NS5BΔCT21, from HCV-Con 1 isolate, genotype 1b, Genbank accession number AJ238799) was produced and purified from Escherichia coli as C-terminal polyhistidine-tagged fusion protein as described in Ferrari et al., J. Virol. 73:1649-1654 (1999). A typical assay contained 20 mM Hepes pH 7.3, 10 mM MgCl2, 60 mM NaCl, 100 μg/ml BSA, 20 units/ml RNasin, 7.5 mM DTT, 0.1 μM ATP/GTP/UTP, 0.026 μM CTP, 0.25 mM GAU, 0.03 μM RNA template, 20 μCi/ml [^33P]-CTP, 2% DMSO, and 30 or 150 nM NS5B enzyme. Reactions were incubated at 22° C. for 2 hours, then stopped by adding 150 mM EDTA, washed in DE81 filter plate in 0.5M di-basic sodium phosphate buffer, pH 7.0, and counted using Packard TopCount after the addition of scintillation cocktail. Polynucleotide synthesis was monitored by the incorporation of radiolabeled CTP. The effect of the Compounds of Formula (I) on the polymerase activity was evaluated by adding various concentrations of a Compound of Formula (I), typically in 10 serial 2-fold dilutions, to the assay mixture. The starting concentrations ranged from 200 μM to 1 μM. An IC50 value for the inhibitor, defined as the compound concentration that provides 50% inhibition of polymerase activity, was determined by fitting the cpm data to the Hill equation Y=100/(1+10^((LogIC50-X)*HillSlope)), where X is the logarithm of compound concentration, and Y is the % inhibition. Ferrari et al., 12th International Symposium on HCV and Related Viruses, P-306 (2005) described in detail this assay procedure. It should be noted that such an assay as described is exemplary and not intended to limit the scope of the invention. The skilled practitioner can appreciate that modifications including but not limited to RNA template, primer, nucleotides, NS5B polymerase form, buffer composition, can be made to develop similar assays that yield the same result for the efficacy of the compounds and compositions described in the invention.
NS5B polymerase inhibition data for selected Compounds of Formula (I) is provided below in Table 2, wherein the compound numbers correspond to the compound numbering set forth in the above specification.

[2] = system: HCV replicon cells (replicon RNA level); assay: Cell-Based HCV Replicon Assay; settings: Hepatitis C virus, 72 h; replicon RNA level by real time PCR (Taqman), cells harvested on day 3; read-out: EC50
Description: To measure cell-based anti-HCV activity of the a Compound of Formula (I), replicon cells were seeded at 5000 cells/well in 96-well collagen I-coated Nunc plates in the presence of the Compound of Formula (I). Various concentrations of a Compound of Formula (I), typically in 10 serial 2-fold dilutions, were added to the assay mixture, with the starting concentration ranging from 250 μM to 1 μM. The final concentration of DMSO was 0.5%, fetal bovine serum was 5%, in the assay media. Cells were harvested on day 3 by the addition of 1× cell lysis buffer (Ambion cat #8721). The replicon RNA level was measured using real time PCR (Taqman assay). The amplicon was located in 5B. The PCR primers were: 5B.2F, ATGGACAGGCGCCCTGA; 5B.2R, […]; the probe sequence was FAM-labeled CACGCCATGCGCTGCGG. GAPDH RNA was used as endogenous control and was amplified in the same reaction as NS5B (multiplex PCR) using primers and VIC-labeled probe recommended by the manufacturer (PE Applied Biosystem). The real-time RT-PCR reactions were run on ABI PRISM 7900HT Sequence Detection System using the following program: 48° C. for 30 min, 95° C. for 10 min, 40 cycles of 95° C. for 15 sec, 60° C. for 1 min. The ΔCT values (CT5B-CTGAPDH) were plotted against the concentration of test compound and fitted to the sigmoid dose-response model using XLfit4 (MDL). EC50 was defined as the concentration of inhibitor necessary to achieve ΔCT=1 over the projected baseline; EC90 the concentration necessary to achieve ΔCT=3.2 over the baseline. Alternatively, to quantitate the absolute amount of replicon RNA, a standard curve was established by including serially diluted T7 transcripts of replicon RNA in the Taqman assay. All Taqman reagents were from PE Applied Biosystems. Such an assay procedure was described in detail in e.g. Malcolm et al., Antimicrobial Agents and Chemotherapy 50: 1013-1020 (2006).
HCV Replicon assay data for selected Compounds of Formula (I) is provided below in Table 1, wherein the compound numbers correspond to the compound numbering set forth in the above specification.

[3] = NS5B polymerase inhibition, [33P]-CTP incorporation, 22° C. for 2 hours, read-out: IC50

Structure (SMILES)	IC50 [1, 3] [nM]	EC50 [2] [nM]	IC50 [1] [nM]
Cn1cc(F)c(Cn2c(C(=O)O)c(-c3ccc[nH]c3=O)c3c4occc4c(F)cc32)cc1=O [Compound 96]	< 25	< 500	
NC(=O)c1cc(Cn2c(C(=O)O)c(-c3ccc[nH]c3=O)c3c4occc4c(F)cc32)cs1 [Compound 97]	< 25	< 500	
NC(=O)c1ncc(Cn2c(C(=O)O)c(-c3ccc[nH]c3=O)c3c4occc4c(F)cc32)s1 [Compound 98]	25 to 100	500 to 1500	
NC(=O)c1cc(Cn2c(C(=O)O)c(-c3ccc[nH]c3=O)c3c4c(c(F)cc32)CCO4)cs1 [Compound 99]	< 25	500 to 1500	
Nc1n[nH]c2ccc(Cn3c(C(=O)O)c(-c4ccc[nH]c4=O)c4c5occc5c(F)cc43)cc12 [Compound 100]	< 25	< 500	
Nc1nc2cc(Cn3c(C(=O)O)c(-c4ccc[nH]c4=O)c4c5occc5c(F)cc43)ccc2[nH]1 [Compound 101]	< 25	< 500	
Nc1noc2ccc(Cn3c(C(=O)O)c(-c4ccc[nH]c4=O)c4c5occc5c(F)cc43)cc12 [Compound 102]	< 25	< 500	
O=C(O)c1c(-c2ccc[nH]c2=O)c2c3occc3c(F)cc2n1Cc1ccc2[nH]c(=O)[nH]c2c1 [Compound 103]	< 25	< 500	
COc1ccc([N+](=O)[O-])cc1Cn1c(C(=O)O)c(-c2ccc[nH]c2=O)c2c3occc3ccc21 [Compound 104]	< 25	> 1500	
O=C(O)c1c(-c2ccc[nH]c2=O)c2c3occc3c(F)cc2n1Cc1cc2nc[nH]c2cc1F [Compound 105]	< 25	< 500	
NC(=O)c1ccc(F)c(Cn2c(C(=O)O)c(-c3ccc[nH]c3=O)c3c4occc4c(F)cc32)c1 [Compound 107]	< 25	< 500	
O=C(O)c1ccc(F)c(Cn2c(C(=O)O)c(-c3ccc[nH]c3=O)c3c4occc4c(F)cc32)c1 [Compound 108]	< 25	500 to 1500	
NC(=O)c1cnc(F)c(Cn2c(C(=O)O)c(-c3ccc[nH]c3=O)c3c4occc4c(F)cc32)c1 [Compound 109]	< 25	< 500	
O=C(O)c1c(-c2ccc[nH]c2=O)c2c3occc3c(F)cc2n1Cc1cc([N+](=O)[O-])ccc1F [Compound 111]	< 25	< 500	
NC(=O)c1cnc(F)c(Cn2c(C(=O)O)c(-c3ccc[nH]c3=O)c3c4c(c(F)cc32)CCO4)c1 [Compound 113]	< 25	< 500	
O=C(O)c1c(-c2ccc[nH]c2=O)c2c3occc3c(F)cc2n1Cc1cc(=O)[nH]c2ccccc12 [Compound 114]		< 500	< 25
O=C(O)c1c(-c2ccc[nH]c2=O)c2c3occc3c(F)cc2n1Cc1cc2ccccc2[nH]c1=O [Compound 115]	< 25	< 500	
O=C(O)c1c(-c2ccc[nH]c2=O)c2c3occc3ccc2n1Cc1cc2ccccc2nc1Cl [Compound 116]	< 25	< 500	
O=C(O)c1c(-c2ccc[nH]c2=O)c2c3occc3c(F)cc2n1Cc1nc2ccccc2[nH]c1=O [Compound 117]	< 25	< 500	
O=C(O)c1c(-c2ccc[nH]c2=O)c2c3occ(Cl)c3c(F)cc2n1Cc1cc(F)ccc1F [Compound 119]	< 25	< 500	
